The test system of assay [1] is HIV Bal strain. Kind of assay: HIV RT activity in culture supernatants of HIV Bal strain-infected MDM. Format: cell-based, HIV-1. How it is done: The cells were also incubated with SP and/or anti-SP antibody. In this case, SP was incubated with (1:1000 dilution in 10% FCS DMEM) or without anti-SP antibody at room temperature for 10 min and then the mixture was added to the cell cultures for 2 h. When the cells were treated with the combination of CP-96,345 and SP, or CP-96,345, SP and anti-SP antibody, CP-96,345 was incubated with the cell culture for 10 min and then SP was added to the MDM or CP-96,345, SP and anti-SP (1:1000 in 10% FCS DMEM) were incubated for 10 min at room temperature and the mixture was incubated with the MDM for 2 h before infection with HIV. Untreated MDM served as controls. The cells were treated prior to, during, and throughout the infection.
HIV Infection: After 2 h incubation with or without the reagents described above, the cells were infected with equal amounts of cell-free HIV based on p24 antigen content (20 ng/10^6 cells) overnight, and then washed to remove unbound virus. Fresh media containing SP and/or CP-96,345 or anti-SP antibody were added to the MDM as described above. The culture media and the reagents were replaced twice weekly. The culture supernatants were harvested for HIV reverse transcriptase (RT) activity determinations. After HIV infection, the MDM were incubated for 8 to 12 days. At the termination of the experiments, cellular RNA was extracted for assessment of HIV gag gene expression using RT-PCR or real time RT-PCR assays.
The HIV RT activity assay was carried out based on the technique of Willey et al. (30) with modification (22).

For assay [2], the system named is R5X4 strain (89.6). Put plainly: HIV RT activity in MDM infected with R5X4 strain. Format: cell-based. Particulars: 8 days after infection. How it is done: Based upon their differential use of the major HIV co-receptors, HIV isolates have been referred to as R5, X4 or R5X4 strains, respectively (29). The M-tropic (macrophage-tropic) R5 prototype strains (Bal and ADA), dual tropic strain (89.6) and X4 primary isolate (UG024), were obtained from the NIH AIDS Reagent Program. Primary M-tropic isolates (BL-6 and CSF-6) were isolated from the blood and cerebrospinal fluid cells, respectively, of a subject with AIDS. […] The cells were also incubated with SP and/or anti-SP antibody. In this case, SP was incubated with (1:1000 dilution in 10% FCS DMEM) or without anti-SP antibody at room temperature for 10 min and then the mixture was added to the cell cultures for 2 h. When the cells were treated with the combination of CP-96,345 and SP, or CP-96,345, SP and anti-SP antibody, CP-96,345 was incubated with the cell culture for 10 min and then SP was added to the MDM or CP-96,345, SP and anti-SP (1:1000 in 10% FCS DMEM) were incubated for 10 min at room temperature and the mixture was incubated with the MDM for 2 h before infection with HIV. Untreated MDM served as controls. The cells were treated prior to, during, and throughout the infection. […]

For assay [3], the system named is HIV LTR promoter. Kind of assay: HIV LTR-driven CAT activity assay in U38 cells. Type of assay: cell-based. From the text:
ACH-2 and U38 cell lines (25, 26) were obtained from the NIH AIDS Reagent Program. DNA extracted from ACH-2 cells was used as a positive standard for HIV DNA PCR as previously reported (27). The U38 cell line contains stably integrated, silent copies of the HIV LTR (long terminal repeat) promoter linked to a CAT (chloramphenicol acetyltransferase) gene and was used to study the effect of SP and/or CP-96,345 and R-113281 on the activation of HIV LTR promoter.
Chloramphenicol acetyltransferase (CAT) activity assay: U38 cells (2×10^6 cells) were incubated with different concentrations of SP and/or CP-96,345 or R-113281 for 48 h. Untreated U38 cells were used as a background control. Cellular proteins were extracted using 1X Reporter Lysis Bufffer (Promega Corp., Madison, Wis.). The lysates were incubated with a mixture containing 0.15 μCi of ^14C-labeled chloramphenicol (DuPont Inc., Boston, Mass.) and 200 μg/ml of n-Butyryl CoA (Promega Corp., Madison, Wis.) in a total volume of 125 μl at 37° C. for 3 h. The acetylated forms of chloramphenicol were extracted with xylene (Aldrich Chemical Company, Milwaukee, Wis.). CAT activity of each sample was quantified using a liquid-scintillation counter (Packard Instrument Company, Downers Grove, Ill.). The results were expressed as the ratio of CAT activity (CPM) of the SP and/or CP-96,345-treated or R-113281-treated U38 to that of the background control.

Assay [4] relates to TNF-α. Kind of assay: LPS-stimulated TNF-α production in MDM by ELISA. Type of assay: cell-based, human. The conditions noted are these: 10^−9 to 10^−7M; LPS 1 ng/ml; 24 h. How it is done:
(§1) In order to determine the role of CP-96,345 in the regulation of cytokine secretion, 7-day-cultured MDM were incubated with or without CP-96,345 (10^−9 to 10^−7M) and/or LPS (1 ng/ml) for 24 h. The culture supernatants were collected to determine TNF-A and IL-6 levels by ELISA. The ELISA kits were purchased from Endogen, Inc. (Woburn, Mass.).

For assay [5], the system named is CD4, CXCR4 and CD14 receptors. Put plainly: Flow cytometry of CD4, CXCR4 and CD14 receptor expression on MDM. Type of assay: cell-based, human. The conditions noted are these: incubated overnight (24 h); direct immunofluorescence. How it is done: The cells were removed from the culture plate and then resuspended in 100 μl of phosphate-buffered saline (PBS). After incubation with 20 μl of either anti-CCR5-FITC or anti-CXCR4-FITC or anti-CD4-FITC or anti-CD14-FITC for 45 min at 4° C., the cells were washed twice with PBS and fixed with 1% paraformaldehyde in PBS. Fluorescein-conjugated control antibodies were isotype-matched IgG. Fluorescence was analyzed on an EPICS-Elite flow cytometer (Beckman-Coulter Electronics, Hialeah, Fla.).

Assay [6] has as its system IL-6. Put plainly: LPS-stimulated IL-6 production in MDM by ELISA. Format: cell-based, human. Particulars: 10^−9 to 10^−7M; LPS 1 ng/ml; 24 h. How it is done:
as §1

With `COc1cc(C(=O)N2CCO[C@](CCN3CCC4(CC3)c3ccccc3C[S@+]4[O-])(c3ccc(Cl)c(Cl)c3)C2)cc(OC)c1OC.Cl` [R-113281], in assay [1] (MDM treated 2 hours, HIV-1 M-tropic strain Bal, day 8 post-infection), the “HIV RT activity” value was “significantly reduced”. Further, the “replication of R5X4 strain (HIV RT activity)” value in assay [2] (R-113281 10^−6 M) was “inhibited to a lesser extent”. Moreover, the “effect on SP activation of HIV LTR-driven CAT activity” value in assay [3] (SP (10^−8M) plus R-113281 (10^−6M), 48 hours) was “abrogated”.

Regarding `COc1ccccc1CN[C@H]1C2CCN(CC2)[C@H]1C(c1ccccc1)c1ccccc1` [CP-96,345, [2S,3S)-cis-2-(diphenylmethyl)-N-[(2-methoxyphenyl)-methyl]-1-azabicyclo [[2.2.2]-octan-3-amine]], the “viral replication as determined by HIV RT activity” value in assay [1] (10^−7M, 8 days after infection, vs HIV infection control) is recorded as “inhibited”. In addition, the “effect on SP-enhanced HIV replication in MDM (HIV RT activity and HIV gag mRNA levels)” value in assay [1] (SP 10^−6M, CP-96,345 10^−6M, anti-SP antibody 1:1000 dilution, 12 days after infection) is given as “abrogated”. The “HIV replication relative to HIV infection control” value in assay [1] (in presence of SP 10^−6M, CP-96,345 10^−6M and/or anti-SP antibody 1:1000, 12 days) is given as “down-regulated HIV replication to a level that was even lower than that of the HIV infection control”. The “LPS-stimulated TNF-A production in MDM” value in assay [4] was “attenuated”. In addition, the “CD4, CXCR4 and CD14 receptor expression on MDM” value in assay [5] was “only CCR5 expression was down-regulated”. The “replication of R5X4 strain 89.6 (HIV RT activity)” value in assay [2] (CP-96,345 10^−7M) was “inhibited to a lesser extent”. In assay [6], the “IL-6 production in MDM” value is on record as “not affected”. The “effect on SP activation of HIV LTR-driven CAT activity” value in assay [3] (SP 10^−8M plus CP-96,345 10^−6M, 48 h) is “abrogated”.

The values above are taken from patent publication US6676950B2, “Neurokinin receptor antagonists and methods of use thereof for inhibiting HIV infection” (The Children's Hospital of Philadelphia, priority 2001, dated 2004).
